Here are results for 4 molecules from patent US7892767B2, “Phosphospecific chemokine receptor antibodies” (Washington University in St. Louis, priority 2005, dated 2011).

The structures appear in SMILES notation.

Data set [1] addresses CXCR4 (Homo sapiens, UniProt P61073). Briefly: Stimulated CXCR4 phosphorylation in LN428 GBM cells (western blot). The class given is cell-based. More on the design: lysates from the glioblastoma cell line LN428, which is known to express high levels of CXCR4; endogenous in cells; host or cells: LN428 GBM cell line. Here is the method: Cell Culture, transfections and stimulation of CXCR4 phosphorylation. The U87 glioblastoma multiforme (GBM, grade IV) cell line was obtained from the American Type Culture Collection. The LN428 GBM cell line was a kind gift of Dr Erwin van Meir (Winship Cancer Center, Emory University, Atlanta, Ga.). U87 cells were grown in minimum essential a media supplemented with 10% fetal bovine serum ((FBS), Biomedia, Foster City, Calif.). LN428 cells were grown in DMEM (Fisher, Pittsburgh, Pa.) supplemented with 10% horse serum (Sigma). All cells were grown in the presence of penicillin-streptomycin. The coding sequence for human CXCR4 was obtained by high fidelity RT-PCR (Superscript III Platinum, Invitrogen), and cloned into the expression vector pMSCVneo (Clontech, Palo Alto, Calif.). Transfections were performed with 0.3 μg of plasmid DNA in 20 μl Lipofectamine (Invitrogen)/35 mm^2 tissue culture dish for 9 hours according to the manufacturer's instructions. Cells recovered in Optimem supplemented with 10% FBS. Transfected and non-transfected cells were placed in serum free media for 24 hours prior to treatment with agents to stimulate CXCR4 phosphorylation. Treatment was usually for 0 or 10 minutes with 1 μg/ml CXCL12 (Peprotech, Rocky Hill N.J.), 4 μM 4-Phorbol 12-myristate 13-acetate (PMA) or 10 nM EGF. In some experiments, CXCL12 was washed away and cells were incubated for an additional 20 minutes in serum free media alone.
Western Blot Analysis. Whole-cell extracts were obtained by lysing cells with lysis buffer (20 mM Tris pH 7.4, 137 mM NaCl, 10% Glycerol and 1% Triton X-100) supplemented with phosphatase inhibitor cocktail set II (Calbiochem, La Jolla, Calif.) and protease inhibitors PMSF (1 mM), leupeptin (0.005 mg/ml) and aprotonin (0.005 mg/ml). The proteins (50-75 μg) were resolved with 10% Bis-Tris gels (Invitrogen) and transferred onto the nitrocellulose membrane Hybond ECL (Amersham, Piscataway, N.J.) according to standard protocols. Polyclonal anti-CXCR4 antibody was used at a 1:500 dilution and P338-CXCR4 and P339-CXCR4 directed antibodies were used at 1:100 dilutions overnight at 4° C. This was followed by incubation with horseradish peroxidase-conjugated secondary antibody (1:15,000; Bio-Rad). Peroxide activity was detected using the enhanced chemiluminescence Supersignal West Dura system (Pierce, Rockford, Ill.). Mouse anti-actin antibody at a concentration of 1:1500 was used as a loading control. Peptide competitions and lambda phosphatase treatment were performed as described above.
The utility of these antibodies for evaluating the relationship between ligand binding and CXCR4 function is dependent upon their ability to distinguish a ligand activated form of the receptor. Serum starvation increased CXCL12 responsiveness (data not shown), and for all of these experiments LN428 GBM cells were serum starved for 24 hours prior to CXCL12 treatment. Serum starved LN428 cells were treated with 1 μg/ml CXCL12 for 0 or 10 minutes and the abundance of phospho-CXCR4 was determined by western blot and immuno-localization in fixed cells. […] A similar CXCL12-induced increase in P339-CXCR4 (FIG. 3B), but not P338-CXCR4 (data not shown) immunoreactivity was seen by immunofluorescent analysis of paraformaldehyde fixed cells. After 10 minutes of exposure to CXCL12, P339-CXCR4 can be seen localized to the surface of LN428 cells (FIG. 3B). CXCL12 was then washed away and cells were incubated in its absence for an additional 20 minutes. Surface labeling declined as a function of time and P339-CXCR4 was seen accumulating intracellularly.
Whether this is the only kinase that can phosphorylate these residues is unclear. The observation that protein kinase C (PKC) stimulated CXCR4 internalization also depends upon phosphorylation of this region of the molecule raises the question of whether these sites might also be PKC phosphorylation sites (17, 19, 27, 28). […]
Background: In western blotting, separated proteins are transferred to a membrane and probed.

For data set [2], the system named is Nf1+/+ astrocytes. The experiment in a line: Intracellular cAMP by ELISA, Nf1+/+ astrocytes. Format: cell-based, mouse. Here is the method:
(§1) cAMP measurements. cAMP was measured by ELISA (Cayman Chemical Company, Ann Arbor, Mich. or Assay Designs, Ann Arbor, Mich.). Briefly, astrocyte cultures were lysed in 0.1 N HCl. After the removal of cellular debris, soluble cellular extract was dried down and resuspended in EIA buffer. Experimental samples and cAMP standard curve were acetylated to increase the sensitivity of the assay and incubated with cAMP ACHe tracer and cAMP EIA anti-serum overnight at 4° C. according to the manufacturer's instructions. After extensive washing, bound antibody was measured by spectrophotometric analysis. Concentrations of cAMP were derived from comparison with standard curve according to manufacturer's instructions.
(§2) We evaluated the time dependent changes in intracellular cAMP in Nf1+/+ and Nf1−/− astrocytes after exposure to 0.1 μg/ml CXCL12. […] However, in Nf1+/+ astrocytes, intracellular levels of cAMP rapidly recovered to baseline and oscillated between baseline and 40% of baseline over the 45-minute experimental period (FIG. 10B).
(§3) We hypothesized that if cooperative signaling between Nf1 loss and CXCR4 activation promotes tumor formation through the suppression of cAMP, then agents that alter intracellular cAMP should modulate CXCL12 responses. We treated astrocytes with the adenylyl cyclase (AC) activator forskolin in the presence and absence of CXCL12. […] In these experiments, forskolin elevated intracellular cAMP levels in both Nf1+/+ and Nf1−/− astrocytes with peak values of 17.8+/−0.4 and 19.4+/−4.5 pmol/mg of protein, respectively, after 24 hours of treatment. The effect of forskolin was not abrogated by co-treatment with CXCL12. Under these conditions, cAMP levels were 17.9+/−2.5 and 10.4+/−5.8 pmol/mg of total protein in Nf1+/+ and Nf1−/− astrocytes, respectively. […] The effect of forskolin on CXCL12-mediated Nf1−/− apoptosis was evidenced by changes in the percentage of Nf1−/− astrocytes in the sub-G0 fraction of the cell cycle (FIG. 11B). Thus while astrocyte growth is dependent upon MEK and PI3 kinase activity, CXCL12-induced Nf1−/− astrocyte growth requires the suppression of intracellular cAMP levels.

Data set [3] relates to Nf1−/− astrocytes. The experiment in a line: Intracellular cAMP by ELISA, Nf1−/− astrocytes. The class given is cell-based, mouse. Here is the method:
as §1, §2, §3
Background: ELISA stands for enzyme-linked immunosorbent assay.

Data set [4] deals with Nf1+/+ astrocytes. The experiment in a line: Cell number by trypan blue exclusion, Nf1+/+ astrocytes. The class given is cell-based, mouse. The note with it: data not shown. Here is the method: (§4) Culture and treatment of primary astrocytes. Primary cultures of astrocytes were prepared from post-natal day two Nf1^flox/flox mice as previously described (134) and in accordance with established Animal Studies Protocols at Washington University School of Medicine. Cultures were infected with adenovirus containing either Cre recombinase (Nf1−/−) or LacZ (Nf1+/+). Primary cultures of astrocytes were grown under standard adherent conditions in serum free media (DMEM/F12 or Neurobasal (Gibco-BRL)) in the presence or absence of 0.1 μg/ml CXCL12 (Peprotech) and 10 μM Forskolin for 24 hours, as indicated. Cell number was determined after 24 hours by trypan blue exclusion and the growth effects of CXCL12 were derived as follows: ((cell number in the presence of CXCL12—cell number cell in the absence of CXCL12)/cell number in the absence of CXCL12)×100.)
(§5) To determine the biological significance of CXCR4 activation to NF1 glioma biology, we next sought to evaluate the regulation of CXCL12 growth effects by neurofibromin in astrocytes. While the true cell of origin of astrocytomas remains unknown, we utilized primary cultures of cortical astrocytes as a model of a normal counterpart to astrocytoma cells. Astrocytes were derived from Nf1^flox/flox mice and rendered Nf1+/+ or Nf1−/− by infection with adenovirus encoding LacZ or Cre recombinase, respectively.

The test system of data set [5] is Nf1−/− astrocytes. Briefly: Cell number by trypan blue exclusion, Nf1−/− astrocytes. As to conditions: data not shown. Format: cell-based, mouse. On the procedure: as §4, §5
The conditions of data set [6]: reference (94), cited from earlier work.
Data set [7] deals with U87 GBM xenografts. The note with it: systemic delivery, reference (3); cited from earlier work.
Data set [8] deals with Daoy xenografts. The note with it: systemic delivery, reference (3); cited from earlier work.
Where [9] appears, read: 1 μg/ml CXCL12, 4 μM PMA or 10 nM EGF.
Where [10] appears, read: forskolin 10 μM co-treatment with CXCL12 0.1 μg/ml.

Sequence of CXCR4 (P61073 whole entry): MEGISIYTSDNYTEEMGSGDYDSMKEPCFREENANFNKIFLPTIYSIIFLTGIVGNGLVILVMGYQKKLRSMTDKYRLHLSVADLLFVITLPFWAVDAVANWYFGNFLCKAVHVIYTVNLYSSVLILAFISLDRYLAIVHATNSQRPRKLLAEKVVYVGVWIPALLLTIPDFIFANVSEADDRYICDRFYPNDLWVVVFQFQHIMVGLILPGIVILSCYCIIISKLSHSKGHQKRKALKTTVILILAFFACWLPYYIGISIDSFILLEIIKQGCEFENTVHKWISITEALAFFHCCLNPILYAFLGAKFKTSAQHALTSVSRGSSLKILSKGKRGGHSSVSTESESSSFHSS

Turning to `CCCCCCCCCCCCCC(=O)O[C@@H]1[C@@H](C)[C@@]2(O)[C@@H](C=C(CO)C[C@]3(O)C(=O)C(C)=C[C@@H]23)[C@@H]2C(C)(C)[C@]12OC(C)=O` [PMA, 4-Phorbol 12-myristate 13-acetate], in data set [1] (setting [9]), the P338 phosphorylation stimulated result is reported as “not” and the P339 phosphorylation entry is given as “stimulated”. The “P339-CXCR4 immunoreactivity compared with response to CXCL12” value in data set [1] (4 μM PMA or 10 nM EGF) was “greater”.
In the case of `C=C[C@@]1(C)CC(=O)[C@]2(O)[C@@]3(C)[C@@H](O)CCC(C)(C)[C@@H]3[C@H](O)[C@H](OC(C)=O)[C@@]2(C)O1` [forskolin], the cAMP levels in data set [2] (setting [10]) is 17.9+/−2.5 pmol/mg of total protein; in data set [3] (setting [10]), 10.4+/−5.8 pmol/mg of total protein. The “peak intracellular cAMP” value in data set [2] (forskolin 10 μM, 24 hours) was 17.8+/−0.4 pmol/mg of protein; in data set [3] (forskolin 10 μM, 24 hours), 19.4+/−4.5 pmol/mg of protein.
As for `COc1cccc(-c2cc(=O)c3ccccc3o2)c1N` [PD98059], the astrocyte growth result in data set [4] and in data set [5] was “prevented growth” each time.
With `c1cc(CN2CCCNCCNCCCNCC2)ccc1CN1CCCNCCNCCCNCC1` [AMD 3100], in data set [6] (sustained dosing over a 10 day period), the toxicities entry is on record as “mild toxicities”. Also, in data set [6] (throughout an 18 day follow-up period after cessation), the “white blood cell counts” value is recorded as “elevations of white blood cell counts”. Also, the “intracranial growth of glioblastoma xenografts” value in data set [7] is “blocked the intracranial growth”. Moreover, in data set [8], the “intracranial growth of medulloblastoma xenografts” value was “blocked the intracranial growth”.
